Laboratory results: patent US20250339402A1, “EFFECTIVE MEANS TO MODULATE NMDA RECEPTOR-MEDIATED TOXICITY” (FUNDAMENTAL PHARMA GMBH, priority 2022, published 2025)
Where a name gives a salt, the structure may show the parent alone.

System: Primary mouse hippocampal neurons
Assay: Excitotoxic (glutamate/NMDA-induced) cell death in primary neuronal cultures, protection index
Assay type: cell-based
Details: Mus musculus, Hippocampal neuron; third subset; excitotoxic cell death in primary neuronal cultures
Method: Primary mouse hippocampal neurons were prepared as previously described (Bading & Greenberg, Science, 1991; 253: 912-914; Zhang et al, Neuron, 2007, 53: 549-562) and maintained in Neurobasal-A medium supplemented with 2% B27, 5 mM L-Glutamax, and 0.5% Penicillin/Streptomycin until challenged with NMDA on days in vitro (DIV) 10. Glutamate-induced cell death was analyzed in a real-time manner by monitoring nuclear localized mCherry with IncuCyte® S3 Live-Cell Analysis System (Sartorius AG, Germany). Primary neurons plated in 24 well plates were infected with rAAV-hSyn-mCherry on DIV3 and challenged with 1 μM or 20 μM glutamate on DIV10. All compounds were added to the culture 30 min prior to glutamate/NMDA insult. Images were acquired following the glutamate application for 24 h with a 2 h interval, where 9-16 images were obtained via a 20×objective for each condition at each time point. Cell deaths were quantified by analyzing the existence of nuclear localized mCheery via the Basic Analyzer with Incucyte® 2021 software, size and average intensity were used as exclusion criteria.
In order to evaluate the protective effects of various compounds, a quantification method was developed to determine each compound's protection index. The protection index (from 0.0 to 10.0) was calculated by the area above the curve (AAC) during a 24 h excitotoxic stimuli, where the cell survival was normalized to the 0 h (FIG. 2), following the equation: […]
Where AAC represents for each compound, AACbasal represents for the basal condition without excitotoxic insult, AACVeh represents for the vehicle control with excitotoxic insult. Based on the equation, vehicle (DMSO) has a protection index at 0.0 and compound P401 of WO 2020/079244 has a protection index at 6.0 (at 10 μM).
The inventors also performed experiments with Group A compounds at lower concentration in a 3-fold dilution matter ([…]: 3.0, 1.0, 0.3, 0.1, 0.03) and were able to achieve a similar protection effect as 10 μM compound P401, but at a lower concentration.

Structure (SMILES) | IC50
CC(c1c(F)cccc1Cl)N(CCN)C1CC1 (stereo not drawn) [Compound 186] | 800 nM
CC(c1c(F)ccc(Cl)c1F)N(CCN)C1CC1.Cl (stereo not drawn) [Compound 187] | 2000 nM
NCCN(C1CC1)C(c1cccc(Cl)c1F)C1CC1 (stereo not drawn) [Compound 190] | 110 nM
CC(c1cccc(Br)c1F)N(CCN)C1CC1 (stereo not drawn) [Compound 191, N^1-(1-(3-bromo-2-fluorophenyl)ethyl)-N^1-cyclopropylethane-1,2-diamine hydrochloride] | 230 nM

Same assay, conditions: first subset; protection index from area above curve over 24 h glutamate/NMDA insult; compounds added 30 min before; 10 μM, Group A also at lower concentrations

Structure (SMILES) | Biological Activity Rating
CCN(CCN)Cc1cccc(Cl)c1F [Compound 91] | A (With a protection index over 7.0, provides a significantly better protection over compound P401 (10 μM) at 10 μM.)
CCN(CCN)Cc1c(F)ccc(Cl)c1F [Compound 92] | A (With a protection index over 7.0, provides a significantly better protection over compound P401 (10 μM) at 10 μM.)
CCN(CCN)Cc1cc(F)cc(Cl)c1 [Compound 94] | B (With a protection index between 5.0 to 7.0, provides a comparable protection to compound P401 (10 μM) at 10 μM.)
CCN(CCN)Cc1cc(Cl)ccc1F [Compound 95] | B (With a protection index between 5.0 to 7.0, provides a comparable protection to compound P401 (10 μM) at 10 μM.)
NCCN(Cc1cccc(Cl)c1F)CC(F)F [Compound 118, N1-(3-chloro-2-fluorobenzyl)-N1-(2,2-difluoroethyl)ethane-1,2-diamine] | C (With a protection index between 3.0 to 5.0, provides a significantly lower protection compared to compound P401 (10 μM) at 10 μM.)
NCCN(Cc1cccc(Cl)c1F)CC(F)(F)F [Compound 119, N1-(3-chloro-2-fluorobenzyl)-N1-(2,2,2-trifluoroethyl)ethane-1,2-diamine] | A (With a protection index over 7.0, provides a significantly better protection over compound P401 (10 μM) at 10 μM.)
NCCN(Cc1cccc(Cl)c1)C1CCC1 [Compound 123, N1-(3-chlorobenzyl)-N1-cyclobutylethane-1,2-diamine hydrochloride] | B (With a protection index between 5.0 to 7.0, provides a comparable protection to compound P401 (10 μM) at 10 μM.)
NCCN(Cc1cccc(Cl)c1)C1CCCCC1 [Compound 124] | B (With a protection index between 5.0 to 7.0, provides a comparable protection to compound P401 (10 μM) at 10 μM.)
CSCCN(CCN)Cc1cccc(Cl)c1 [Compound 126] | B (With a protection index between 5.0 to 7.0, provides a comparable protection to compound P401 (10 μM) at 10 μM.)
NCCN(Cc1cccc(Cl)c1)CC1CC1 [Compound 134] | B (With a protection index between 5.0 to 7.0, provides a comparable protection to compound P401 (10 μM) at 10 μM.)
NCCN(Cc1cccc(Cl)c1)CC1CCC1 [Compound 135] | B (With a protection index between 5.0 to 7.0, provides a comparable protection to compound P401 (10 μM) at 10 μM.)
C=CCN(CCN)Cc1cccc(Cl)c1 [Compound 136] | A (With a protection index over 7.0, provides a significantly better protection over compound P401 (10 μM) at 10 μM.)
C=CCC(=O)N(CCN)Cc1cccc(Cl)c1 [Compound 137, N-(2-aminoethyl)-N-[(3-chlorophenyl)methyl]but-3-enamide hydrochloride] | A (With a protection index over 7.0, provides a significantly better protection over compound P401 (10 μM) at 10 μM.)
NCCN(Cc1cccc(Cl)c1F)CC1CC1 [Compound 153] | C (With a protection index between 3.0 to 5.0, provides a significantly lower protection compared to compound P401 (10 μM) at 10 μM.)
NCCN(Cc1cccc(Cl)c1F)C1CCC1 [Compound 159, N1-(3-chloro-2-fluorobenzyl)-N1-cyclobutylethane-1,2-diamine dihydrochloride] | A++ (With a protection index between 5.0 to 7.0, provides a comparable protection to compound P401 (10 μM) at 1.0 μM.)
C=CCN(CCN)Cc1cccc(Cl)c1F [Compound 160] | A (With a protection index over 7.0, provides a significantly better protection over compound P401 (10 μM) at 10 μM.)
CCN(CCN)Cc1cccc(C#N)c1F [Compound 175, 3-(((2-aminoethyl)(ethyl)amino)methyl)-2-fluorobenzonitrile TFA salt] | A+ (With a protection index between 5.0 to 7.0, provides a comparable protection to compound P401 (10 μM) at 3.0 μM.)
CCN(CCN)Cc1cccc(Br)c1F [Compound 175A] | A (With a protection index over 7.0, provides a significantly better protection over compound P401 (10 μM) at 10 μM.)

Same assay, conditions: second subset; protection index from area above curve over 24 h glutamate/NMDA insult; compounds added 30 min before; 10 μM, Group A also at lower concentrations

Structure (SMILES) | Biological Activity Rating
CC(c1cccc(Cl)c1F)N(CCN)C1CC1 (single isomer, unassigned; (+)) [Compound 220A, (+)-N1-(1-(3-chloro-2-fluorophenyl)ethyl)-N1-cyclopropylethane-1,2-diamine] | A++ (With a protection index between 5.0 to 7.0, provides a comparable protection to compound P401 (10 μM) at 1.0 μM.)
CC(c1cccc(Cl)c1F)N(CCN)C1CC1 (single isomer, unassigned; (-)) [Compound 220B, (−)-N1-(1-(3-chloro-2-fluorophenyl)ethyl)-N1-cyclopropylethane-1,2-diamine] | A++++ (With a protection index between 5.0 to 7.0, provides a comparable protection to compound P401 (10 μM) at 0.1 μM.)
CCN(CCN)C(C)c1cccc(Cl)c1 (stereo not drawn) [Compound 109] | A (With a protection index over 7.0, provides a significantly better protection over compound P401 (10 μM) at 10 μM.)
CSCCN(CCN)C(C)c1cccc(Cl)c1F (stereo not drawn) [Compound 169, N1-(2-(methylthio)ethyl)-N1-(1-(3-chloro-2-fluorophenyl)ethyl) ethane-1,2-diamine] | B (With a protection index between 5.0 to 7.0, provides a comparable protection to compound P401 (10 μM) at 10 μM.)
C=CCN(CCN)C(C)c1cccc(Cl)c1F (stereo not drawn) [Compound 172, N1-allyl-N1-(1-(3-chloro-2-fluorophenyl)ethyl)ethane-1,2-diamine hydrochloride] | A++ (With a protection index between 5.0 to 7.0, provides a comparable protection to compound P401 (10 μM) at 1.0 μM.)
CCN(CCN)[C@H](C)c1cccc(Cl)c1 [Compound 176, (R)—N1-(1-(3-chlorophenyl)ethyl)-N1-ethylethane-1,2-diamine dihydrochloride] | A (With a protection index over 7.0, provides a significantly better protection over compound P401 (10 μM) at 10 μM.)
CCN(CCN)[C@@H](C)c1cccc(Cl)c1 [Compound 177, (S)—N1-(1-(3-chlorophenyl)ethyl)-N1-ethylethane-1,2-diamine dihydrochloride] | A (With a protection index over 7.0, provides a significantly better protection over compound P401 (10 μM) at 10 μM.)
CC(c1cccc(Cl)c1F)N(CCN)C1CCC1 (stereo not drawn) [Compound 180, N1-(cyclobutyl)-N1-(1-(3-chloro-2-fluorophen, l)ethyl)ethane-1,2-diamine hydrochloride] | A++ (With a protection index between 5.0 to 7.0, provides a comparable protection to compound P401 (10 μM) at 1.0 μM.)
CC(c1cccc(Cl)c1F)N(CCN)C12CC(C1)C2 (stereo not drawn) [Compound 182, N1-(bicyclo[1.1.1]pentan-1-yl)-N1-(1-(3-chloro-2-fluorophenyl)ethyl)ethane-1,2-diamine hydrochloride] | A+ (With a protection index between 5.0 to 7.0, provides a comparable protection to compound P401 (10 μM) at 3.0 μM.)
CC(c1cccc(Cl)c1F)N(CCN)C1CCCC1 (stereo not drawn) [Compound 184, N1-(1-(3-chloro-2-fluorophenyl)ethyl)-N1-cyclopentylethane-1,2-diamine dihydrochloride] | A (With a protection index over 7.0, provides a significantly better protection over compound P401 (10 μM) at 10 μM.)
CC(c1cc(Cl)ccc1Cl)N(CCN)C1CC1 (stereo not drawn) [Compound 185, N1-(cyclopropyl)-N1-(1-(2,5-dichlorophenyl)ethyl)ethane-1,2-diamine hydrochloride] | A++ (With a protection index between 5.0 to 7.0, provides a comparable protection to compound P401 (10 μM) at 1.0 μM.)
CC(c1cc(F)cc(F)c1Cl)N(CCN)C1CC1 (stereo not drawn) [Compound 188, N′-[1-(2-chloro-3,5-difluoro-phenyl)ethyl]-N′-cyclopropyl-ethane-1,2-diamine hydrochloride] | A++ (With a protection index between 5.0 to 7.0, provides a comparable protection to compound P401 (10 μM) at 1.0 μM.)

Same assay, conditions: third subset; A++++ or above correlates with IC50; A++ and A+++ as defined in the source

Structure (SMILES) | Biological Activity Rating
CC(c1c(F)cccc1Cl)N(CCN)C1CC1 (stereo not drawn) [Compound 186] | A+++
CC(c1c(F)ccc(Cl)c1F)N(CCN)C1CC1.Cl (stereo not drawn) [Compound 187] | A++
